In publication PMC3989207, “Subchronic Toxicological Study of Two Artemisinin Derivatives in Dogs” (PLoS ONE, 2014):
Where two headings read alike, the source gives them in different places.

Legend:
beagle dogs [1] = assay: Pathologic (histopathological) examination of organs, brain and cardiac conduction system; format: in vivo, dog
Experimental: (§1) The first day of treatment was regarded as day one in the study. […] Oral administration was performed about 2 h after feeding. ARM was administered by a bolus intramuscular infusion through a 25-gauge needle at a constant volume of 2 ml kg^−1 once a day into the gluteal and infraspinous muscles. Two dogs of each sex from each group were allowed to recover without further treatment for an additional 4 weeks.
Termination of treatment was scheduled to occur on weeks 4, 8 (two interim necropsies) and 13, followed by a 4-week recovery period. For pathological examinations, the animals were euthanized within 24 h of the final drug administration with sodium pentobarbital, followed by exsanguination via the femoral artery. A gross necropsy was performed, including a thorough visual examination of all the internal organs. Weights were obtained for the brain, heart, liver, spleen, lung, kidneys, adrenals, thyroid/parathyroids, thymus, pancreas and ovaries/testes/prostate, and organ-to-body weight ratios were calculated. For each animal, representative samples from approximately 48 organs and tissues were taken and fixed in neutral buffered 10% formalin, except for the sternum, which was retained in Helly’s fixative (1000 ml distilled water, 25 g potassium dichromate, 10 g sodium sulfate, 50 g mercuric chloride, 50 ml 40% formaldehyde). Histopathological sections of all samples were prepared by embedding in paraffin wax, multiple-sectioning and staining with hematoxylin and eosin (HE). Samples of the left ventricular myocardium, right lateral hepatic lobe and right kidney from two animals of each sex from each group were fixed immediately after exsanguination in 2.5% glutaraldehyde, post-fixed in 1.0% osmium tetroxide, and embedded in plastic. Ultrathin liver, kidney and heart sections were examined with a Hitachi H-600 transmission electron microscope (TEM). All other tissues were examined by light microscopy.
After removal, the cardiac conduction system, including the sinoatrial node (SAN) and atrioventricular node (AVN), were selected by the Palate method. The brain was sectioned at multiple transverse levels to obtain susceptible brain regions. To improve the definition of the brain lesions, toluidine stains were applied on selected duplicate sections, and all preparations were examined under a light microscope. For pathologic examinations, degenerative neurons were evaluated on three randomly selected brain sections. The adjacent fields of neurons in each selected section were counted using a microscope at a magnification of 200×. […] The severity of the neuropathological lesions was defined as follows: the total number of neuropathological lesions per section area yielded a severity score from 0 to 4, where 0 = unaffected, 1 = minimally affected neurons with one degenerative cell per section, 2 = two degenerative cells per section, 3 = three degenerative cells per section and 4 = multiple degenerative areas per section.

[2] = set-up: method as in Teja-Isavadharm et al. (1996); conditions: after oral administration compared with i.m. injection of ARM in an oil-based vehicle; ref Teja-Isavadharm et al. (1996); cited from earlier work
beagle dogs [3] = assay: Electrocardiography in the 13-week repeated-dose dog study; format: in vivo; conditions: 6 mg kg^-1 per day p.o.; weeks 3 and 5 in males, weeks 5–9 in females (p<0.01), late stages (p<0.05)
Experimental: as §1
Electrocardiograms were recorded using an Auto Electrocardiogram (ECG-9130P, Nihon Kohden Corporation, Japan). Recordings were taken from each dog, while conscious, every 2 weeks from week-1. Leads I, II, III, aVR, aVL and aVF were utilized. The electrocardiography (ECG) parameters included heart rate, PR, QRS and QT interval, and QRS and T wave amplitudes. As the PQ and QT intervals vary with heart rate, they were adjusted to an RR-interval of 500 ms, corresponding to a heart rate of 120 bpm using the following equation: QT500 = QT – 0.084×(RR – 500).

[4] = set-up: method as in PMID 11060779; conditions: cited from earlier work
beagle dogs [5] = assay: Ultra-structural examination of liver, kidney and heart by transmission electron microscopy; format: in vivo, dog; conditions: weeks 4, 8 and 13; TEM
Experimental: as §1
Termination of treatment was scheduled to occur on weeks 4, 8 (two interim necropsies) and 13, followed by a 4-week recovery period. For pathological examinations, the animals were euthanized within 24 h of the final drug administration with sodium pentobarbital, followed by exsanguination via the femoral artery. A gross necropsy was performed, including a thorough visual examination of all the internal organs. Weights were obtained for the brain, heart, liver, spleen, lung, kidneys, adrenals, thyroid/parathyroids, thymus, pancreas and ovaries/testes/prostate, and organ-to-body weight ratios were calculated. For each animal, representative samples from approximately 48 organs and tissues were taken and fixed in neutral buffered 10% formalin, except for the sternum, which was retained in Helly’s fixative (1000 ml distilled water, 25 g potassium dichromate, 10 g sodium sulfate, 50 g mercuric chloride, 50 ml 40% formaldehyde). […]

beagle dogs [6] = assay: Hematology in the 13-week repeated-dose dog study; format: in vivo
Experimental: as §1
(§2) Blood samples were collected from the femoral vein of each dog prior to treatment and every 2 weeks after the first day of treatment. Hematology parameters were measured using an automated hematology analyzer (Sysmex, XT-2000iv, Toa Medical Electronics Co. Ltd., Kobe, Japan) using standard methods. Test parameters included hemoglobin (Hb) levels, the hematocrit (Hct) fraction, erythrocyte (RBC) count, leukocyte (WBC) count, neutrophilic granulocyte fraction (NE%), monocyte fraction (MO%), lymphocyte levels (LY%), platelet count (PLT), reticulocyte count (RET%) and RBC morphology. The following clinical chemistry parameters were measured using a Hitachi-7180 Chemistry Analyzer (High-Technologies Corporation, Tokyo, Japan) and standard methods: glucose, blood urea nitrogen, inorganic phosphorus, creatinine, total protein, albumin, calcium, aspartate aminotransferase (AST), alanine aminotransferase, alkaline phosphatase, total bilirubin, creatine kinase (CK), sodium, potassium and chloride.
The differential granulocytic and erythrocytic series (erythroid, myeloid blast cell count and the red ratio) were determined manually from blood smears.

beagle dogs [7] = assay: Clinical chemistry in the 13-week repeated-dose dog study; format: in vivo
Experimental: as §1, §2

[8] = Toxicokinetic analysis of plasma drug levels (HPLC); format: in vivo, dog; conditions: both sexes, beagle, dog, plasma, other: ART p.o., ARM i.m., 6 mg/kg, ARM i.m.; for AUC: 6 mg kg^−1 daily, ART p.o., dog plasma
Experimental: as §1
For toxicokinetic analysis, blood samples were collected on weeks 1, 2, 4, 8 and 13 at 0 (before dosing), 0.5, 1, 2, 4, 8, 12 and 24 h after dosing. Approximately 1 ml blood was drawn from the antebrachial, cephalic or jugular vein of three animals of each sex per time point and deposited into heparinized tubes for immediate centrifugation at 3000 rpm at 4°C for 10 min. The plasma was then immediately transferred to 2 ml polypropylene tubes and stored on dry ice. Samples were stored at −80°C until HPLC analysis.

Dogs = system: Dogs; set-up: method as in PMID 8053022, PMID 8053028, PMID 7943542; conditions: for 4 weeks; cited from earlier work
[9] = Week 4, 6 mg kg^-1 per day (ART p.o., ARM i.m.)
[10] = Week 8, 6 mg kg^-1 per day (ART p.o., ARM i.m.)
[11] = Week 13, 6 mg kg^-1 per day (ART p.o., ARM i.m.)
[12] = Week 17 (after 4-week recovery)
[13] = both treated groups, no significant differences
[14] = week 2 until week 10 post-treatment, vs control groups (p<0.05)
[15] = Week 13, females, 6 mg kg^-1 per day

Question: Which neurotoxicity (beagle dogs [1]; 6 mg kg^-1 per day p.o. for 13 weeks) does the source give for `C[C@H]1[C@H](OC(=O)CCC(=O)O)O[C@@H]2O[C@@]3(C)CC[C@H]4[C@H](C)CC[C@@H]1[C@@]24OO3` [ART, artesunate] here?
Answer: not observed

Question: And the “Cardiac conduction system foci (dogs affected/examined)” value (beagle dogs [1]; [9])?
Answer: 0

Question: And the “Extramedullary hematopoiesis (dogs affected/examined)” value (beagle dogs [1]; [9])?
Answer: 3/4

Question: What about the “Hepatocyte necrosis (dogs affected/examined)” value (beagle dogs [1]; [9]) of the same molecule?
Answer: 0

Question: And the “Inhibition of erythropoiesis (dogs affected/examined)” value (“Inhibition … (dogs affected/examined)” below) (beagle dogs [1]; [9])?
Answer: 2/4

Question: What about the “Neuronal necrosis (dogs affected/examined)” value (beagle dogs [1]; [9]) of the same molecule?
Answer: 0

Question: What about the “Tubular cell degeneration (dogs affected/examined)” value (beagle dogs [1]; [9]) of the same molecule?
Answer: 2/4

Question: What about the “Cardiac conduction system foci (dogs affected/examined)” value (beagle dogs [1]; [10]) of the same molecule?
Answer: 1/4

Question: What about the “Extramedullary hematopoiesis (dogs affected/examined)” value (beagle dogs [1]; [10]) of the same molecule?
Answer: 1/4

Question: And the “Hepatocyte necrosis (dogs affected/examined)” value (beagle dogs [1]; [10])?
Answer: 0

Question: And the “Inhibition … (dogs affected/examined)” value (beagle dogs [1]; [10])?
Answer: 0

Question: What about the “Neuronal necrosis (dogs affected/examined)” value (beagle dogs [1]; [10]) of the same molecule?
Answer: 0

Question: And the “Tubular cell degeneration (dogs affected/examined)” value (beagle dogs [1]; [10])?
Answer: 3/4

Question: What about the “Cardiac conduction system foci (dogs affected/examined)” value (beagle dogs [1]; [11]) of the same molecule?
Answer: 2/4

Question: And the “Extramedullary hematopoiesis (dogs affected/examined)” value (beagle dogs [1]; [11])?
Answer: 0

Question: What about the “Hepatocyte necrosis (dogs affected/examined)” value (beagle dogs [1]; [11]) of the same molecule?
Answer: 0

Question: What about the “Inhibition … (dogs affected/examined)” value (beagle dogs [1]; [11]) of the same molecule?
Answer: 0

Question: And the “Neuronal necrosis (dogs affected/examined)” value (beagle dogs [1]; [11])?
Answer: 0

Question: And the “Tubular cell degeneration (dogs affected/examined)” value (beagle dogs [1]; [11])?
Answer: 0

Question: What about the “Cardiac conduction system foci (dogs affected/examined)” value (beagle dogs [1]; [12]) of the same molecule?
Answer: 0

Question: What about the “Extramedullary hematopoiesis (dogs affected/examined)” value (beagle dogs [1]; [12]) of the same molecule?
Answer: 0

Question: And the “Hepatocyte necrosis (dogs affected/examined)” value (beagle dogs [1]; [12])?
Answer: 0

Question: And the “Inhibition … (dogs affected/examined)” value (beagle dogs [1]; [12])?
Answer: 0

Question: And the “Neuronal necrosis (dogs affected/examined)” value (beagle dogs [1]; [12])?
Answer: 0

Question: And the “Tubular cell degeneration (dogs affected/examined)” value (beagle dogs [1]; [12])?
Answer: 1/4

Question: And the “histological examination of sternal bone marrow” value (beagle dogs [1]; [13])?
Answer: mild inhibition of erythropoiesis and a decreased count of mature erythrocytes

Question: What about the spleen histology (beagle dogs [1]; [13]) of the same molecule?
Answer: extramedullary hematopoiesis was observed in the spleen

Question: And the “histopathological changes in the kidneys” value (beagle dogs [1]; vs control groups)?
Answer: tubular epithelium vacuolation and necrosis

Question: What about the “decline of plasma concentrations” value [2] of the same molecule?
Answer: declined much faster after oral administration

Question: What about the “heart rate during treatment” value (beagle dogs [3]) of the same molecule?
Answer: statistically significant decrease

Question: And the solubility character [4]?
Answer: water soluble

Question: And the “ultra-structural findings in hepatocytes, myocardial cells and proximal tubules in the kidney” value (beagle dogs [5])?
Answer: Mitochondrial bending and distortion and swollen vacuoles

Question: And the “Hematology: Hb” value (beagle dogs [6]; Week 4, 6 mg kg^-1 per day)?
Answer: ↓Hct, ↓Hb

Question: And the “Hematology: Hct” value (beagle dogs [6]; Week 4, 6 mg kg^-1 per day)?
Answer: ↓Hct, ↓Hb

Question: And the “Hematology: Hb” value (beagle dogs [6]; Week 8, 6 mg kg^-1 per day)?
Answer: ↓Hct, ↓Hb, ↓MCV

Question: What about the “Hematology: Hct” value (beagle dogs [6]; Week 8, 6 mg kg^-1 per day) of the same molecule?
Answer: ↓Hct, ↓Hb, ↓MCV

Question: And the “Hematology: MCV” value (beagle dogs [6]; Week 8, 6 mg kg^-1 per day)?
Answer: ↓Hct, ↓Hb, ↓MCV

Question: What about the “Hematology: Hb” value (beagle dogs [6]; Week 13, 6 mg kg^-1 per day) of the same molecule?
Answer: ↓Hct, ↓Hb

Question: What about the “Hematology: Hct” value (beagle dogs [6]; Week 13, 6 mg kg^-1 per day) of the same molecule?
Answer: ↓Hct, ↓Hb

Question: What about the MO% (beagle dogs [6]; males and females, after weeks 2 and 4 (p<0.05)) of the same molecule?
Answer: significant increases

Question: What about the Hb levels (beagle dogs [6]; week 2) of the same molecule?
Answer: corresponding decrease

Question: What about the RBC counts (beagle dogs [6]; week 2) of the same molecule?
Answer: decrease

Question: And the LY% (beagle dogs [6]; [14])?
Answer: decreased

Question: And the NE% (beagle dogs [6]; [14])?
Answer: significantly increased

Question: And the WBC count (beagle dogs [6]; [14])?
Answer: significantly increased

Question: What about the “Clinical chemistry (overall)” value (beagle dogs [7]; Week 8, 6 mg kg^-1 per day) of the same molecule?
Answer: - (“-” = No effect)

Question: What about the “Clinical chemistry: Alb(F)” value (beagle dogs [7]; [15]) of the same molecule?
Answer: ↓TP(F), ↓Alb(F)

Question: What about the “Clinical chemistry: TP(F)” value (beagle dogs [7]; [15]) of the same molecule?
Answer: ↓TP(F), ↓Alb(F)

Question: And the serum albumin levels (beagle dogs [7]; weeks 10 and 12)?
Answer: significant decrease

Question: And the AUC ([8]; week 8, read-out: AUC8w)?
Answer: 0.58 ± 0.211 µg·h/mL

Question: And the AUC ([8]; week four, read-out: AUC4w)?
Answer: 1.27 ± 0.539 µg·h/mL

Question: What about the AUC(0-t) ([8]; read-out: AUC93D) of the same molecule?
Answer: 0.729 ± 0.44 µg·h/mL

Question: Which results are given for `CCO[C@H]1O[C@@H]2O[C@@]3(C)CC[C@H]4[C@H](C)CC[C@@H]([C@H]1C)[C@@]24OO3` [ARE, arteether]?
Answer: solubility character [4]: fat soluble; calculated average minimal daily dose necessary to produce toxicity observable by histopathology (Dogs): 6 mg kg^−1

Question: Which “decline of plasma concentrations” value [2] does the source give for `C[C@H]1[C@@H](O)O[C@@H]2O[C@@]3(C)CC[C@H]4[C@H](C)CC[C@@H]1[C@@]24OO3` [DHA, dihydroartemisinin] here?
Answer: declined much faster after oral administration
